# Measured values reported in PubChem BioAssay (NCI).
#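 Method: 48-hour compound exposure of cells in 96-well plates, five concentrations, linear interpolation of endpoints. Here, GI50 denotes the concentration required for 50% inhibition of growth. TGI: total growth inhibition.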
# Assays:
# Test in all cases: growth of human tumour cells (NCI), 48 h
# SF-539 CNS = tested on: SF-539 CNS
# RXF 393 renal = tested on: RXF 393 renal
# COLO 205 colon = tested on: COLO 205 colon
# SNB-19 CNS = tested on: SNB-19 CNS
# A498 renal = tested on: A498 renal
# HCT-15 colon = tested on: HCT-15 colon
# ACHN renal = tested on: ACHN renal
# UACC-257 melanoma = tested on: UACC-257 melanoma
SMILES,TGI (SF-539 CNS) [µM],TGI (RXF 393 renal) [µM],TGI (COLO 205 colon) [µM],TGI (SNB-19 CNS) [µM],TGI (A498 renal) [µM],TGI (HCT-15 colon) [µM],TGI (ACHN renal) [µM],TGI (UACC-257 melanoma) [µM],GI50 (SF-539 CNS) [µM],GI50 (RXF 393 renal) [µM],GI50 (COLO 205 colon) [µM],GI50 (SNB-19 CNS) [µM],GI50 (HCT-15 colon) [µM],GI50 (ACHN renal) [µM],GI50 (UACC-257 melanoma) [µM]
Cc1ccc(C)c(N2C(=O)C(=O)C(c3nc4ccccc4o3)C(=O)C2=O)c1,> 100,> 100,95.4,> 100,> 100,> 100,> 100,> 100,–,–,–,–,–,–,–
COc1ccc2nc(C(=O)c3ccccc3)c(C)cc2c1,13.8,17.3,> 34.5,> 100,10.3,> 40.8,> 100,26.4,–,–,–,–,–,–,–
O=C(C(=O)n1ncc(Cl)c(Cl)c1=O)n1ncc(Cl)c(Cl)c1=O,> 68.8,–,29,> 100,> 100,46.5,32.9,35.7,–,–,–,–,–,–,–
Cc1c(C(=O)O)n(C)c(=O)n(C)c1=O,> 100,> 100,> 100,> 100,> 100,> 100,> 100,> 100,–,–,–,–,–,–,–
Cc1cccc(C(=O)O)c1C(=O)c1cccc2ccccc12,–,> 100,> 100,> 100,> 100,> 100,> 100,> 100,–,–,–,–,–,–,–
CCOC(=O)c1cc(-c2ccc(-c3cc(C(=O)OCC)c(C#N)c(N)c3C#N)cc2)c(C#N)c(N)c1C#N,> 100,> 100,> 100,> 100,–,> 100,> 100,> 100,–,–,–,–,–,–,–
N#CC(C(=O)CCCC(=O)Nc1ccc(Cl)cc1Cl)c1ccccc1 (stereo unspecified),> 100,> 100,> 100,> 100,–,> 100,> 100,> 100,–,–,–,–,–,–,–
CC(C)c1cc(C(C)C)c(S(=O)(=O)N=[N+]=[N-])c(C(C)C)c1,> 100,> 100,> 100,> 100,–,> 100,> 100,> 100,–,–,–,–,–,–,–
CCCCCC(=O)Nc1nc2nc[nH]c2c(=O)[nH]1,> 100,> 100,> 100,> 100,> 100,> 100,> 100,> 100,–,–,–,–,–,–,–
COCCOc1cc(C)cc(/C=C(C)/C=C/C2=C(C)CCCC2(C)C)n1,> 100,> 100,> 100,> 100,> 100,–,> 100,> 100,–,–,–,–,–,–,–
NC1c2ccccc2Nc2ccccc21,–,15.9,6.52,27.7,22.8,14,24.6,17.4,–,–,–,–,–,–,–
CCOC(=O)/C(=C/c1cccc(Cl)c1)N(CC)CC,> 100,–,> 100,–,> 100,> 100,> 100,> 100,–,–,–,–,–,–,–
CC1OC(=O)C(O)=C1O (stereo unspecified),> 100,> 100,> 100,> 100,–,> 100,> 100,> 100,–,–,–,–,–,–,–
COC1CC(O)C(OC(=O)c2ccccc2)C(C)O1 (stereo unspecified),> 100,–,> 100,> 100,> 100,> 100,–,–,–,–,–,–,–,–,–
Cc1ccc(N=C[N-]c2ccc(C)cc2)cc1.Cc1ccc(N=C[N-]c2ccc(C)cc2)cc1.O=C([O-])C(F)(F)F.O=C([O-])C(F)(F)F.[OH3+].[OH3+].[Rh+2].[Rh+2],78.7,33.1,> 100,> 100,–,> 100,> 100,> 100,26.6,15.1,36.3,58.6,46.1,44.7,64.7
CCC[CH2][Sn]([CH2]CCC)([S]C#N)[S]C#N,2.55,1.33,3.77,2.36,–,2.53,2.48,2.4,1.24,0.342,1.4,1.12,1.18,1.24,0.965
CCC(C)CC(C)CC(C)/C=C(\C)C1=C(C)CC(C)(O)O1 (stereo unspecified),> 100,> 100,> 100,–,> 100,> 100,> 100,> 100,–,–,–,–,–,–,–
C1CCCCc2nc3c(nc2CCC1)c1nc2c(nc1c1nc4c(nc31)CCCCCCCC4)CCCCCCCC2,> 100,–,> 100,> 100,> 100,> 100,> 100,> 100,–,–,–,–,–,–,–
COc1ccc(C2=Nc3ccccc3SC(C)C2)cc1OC (stereo unspecified),–,–,40.6,40.2,39.8,31.9,58.1,49.6,–,–,–,–,–,–,–
CCCCCCCC1(c2ccc(N)cc2)CCC(=O)NC1=O (stereo unspecified),–,> 100,52.5,> 100,–,> 100,67.3,> 100,–,–,–,–,–,–,–
CCN(CC)CC1CCCCN1CC(=O)N1CC(C)C(=O)Nc2ccccc21 (stereo unspecified),–,–,> 100,> 100,> 100,> 100,> 100,> 100,–,–,–,–,–,–,–
CC1=C(SC#N)S(=O)(=O)N(c2ccccc2)C(C)=C1SC#N,> 100,> 100,–,76.5,92.1,> 100,> 100,> 100,–,–,–,–,–,–,–
